Each block holds one compound with its values, some of them ahead of it. Calls of active or inactive are those of the source. The rule behind the calls is not given here.
Tests used:
Chemerin-like receptor 1 [1] = biological target: T1, Chemerin-like receptor 1 (Homo sapiens, UniProt Q99788); assay: Antagonist activity at human CMKLR1 expressed in CHO-K1 cells co-expressing Galpha-16 assessed as change in intracellular calcium concentration incubated for 30 mins in presence of chemerin-9 by FLIPR calcium 5 assay; format: functional, cell-based
T1 sequence (Q99788 whole entry): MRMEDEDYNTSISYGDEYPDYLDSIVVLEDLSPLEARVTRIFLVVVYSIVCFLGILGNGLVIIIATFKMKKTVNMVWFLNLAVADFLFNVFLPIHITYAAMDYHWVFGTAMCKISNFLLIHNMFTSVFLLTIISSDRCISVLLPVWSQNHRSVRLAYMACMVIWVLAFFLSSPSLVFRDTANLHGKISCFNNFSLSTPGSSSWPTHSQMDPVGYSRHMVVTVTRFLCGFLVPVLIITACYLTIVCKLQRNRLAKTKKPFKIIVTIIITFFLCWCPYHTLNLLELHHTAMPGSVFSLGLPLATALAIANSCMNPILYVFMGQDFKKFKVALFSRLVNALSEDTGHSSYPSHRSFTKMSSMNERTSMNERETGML

[2] = Cmax in C57BL6 mouse at 30 mg/kg, po measured upto 24 hrs by LC-MS/MS analysis; format: ADME, organism-based; design: dose 30 mg/kg, time < 24 hrs, route po; conditions: in vivo
[3] = Tmax in C57BL6 mouse at 30 mg/kg, po measured upto 24 hrs by LC-MS/MS analysis; format: ADME, organism-based; conditions: in vivo
[4] = AUClast in C57BL6 mouse at 30 mg/kg, po measured upto 24 hrs by LC-MS/MS analysis; format: ADME, organism-based; design: dose 30 mg/kg, time < 24 hrs, route po; conditions: in vivo
[5] = Toxicity in imiquimod-induced BALB/c mouse psoriasis model assessed as change in body weight at 30 mg/kg, po qd administered for 7 days; format: organism-based; conditions: in vivo, 168 h, time 7 day
Mus musculus = assay: Antiinflammatory activity against imiquimod-induced BALB/c mouse psoriasis model assessed as reduction in epidermal proliferation in mouse back skin at 0.4 mg/kg, po qd administered for 7 days by hematoxylin and eosin staining based analysis; format: functional, organism-based; conditions: time 7.0 day
[6] = Toxicity in imiquimod-induced BALB/c mouse psoriasis model assessed as change in body weight at 0.4 mg/kg, po qd administered for 7 days; format: organism-based; conditions: in vivo, 168 h, time 7 day
Chemerin-like receptor 1 [7] = biological target: T1, Chemerin-like receptor 1; assay: Antagonist activity at human CMKLR1
[8] = Cmax in C57BL6 mouse at 10 mg/kg, po measured upto 24 hrs by LC-MS/MS analysis; format: ADME, organism-based; design: dose 10 mg/kg, time < 24 hrs, route po; conditions: in vivo
[9] = Tmax in C57BL6 mouse at 10 mg/kg, po measured upto 24 hrs by LC-MS/MS analysis; format: ADME, organism-based; conditions: in vivo
[10] = AUClast in C57BL6 mouse at 10 mg/kg, po measured upto 24 hrs by LC-MS/MS analysis; format: ADME, organism-based; design: dose 10 mg/kg, time < 24 hrs, route po; conditions: in vivo

Compound: CC(CC(=O)O)c1ccc(OCc2ccc3c(-c4cccc(O)c4)nn(C4CCCC4)c3c2)cc1 (racemic)
IC50 (Chemerin-like receptor 1 [1]): 2570 nM

Compound: Cc1ccc(-c2nn(C3CCCC3)c3cc(COc4ccc(C(C)CC(=O)O)cc4)ccc23)cc1 (racemic)
IC50 (Chemerin-like receptor 1 [1]): 2340 nM

Compound: C[C@@H](CC(=O)O)c1ccc(OCc2cc(F)c3c(-c4cc(Cl)c(CO)c(Cl)c4)nn(C4CCCC4)c3c2)cc1
Cmax [2]: 7900 ng/mL | Tmax [3]: 120 min | AUC(0-t) at 24 h [4]: 64100 ng·h/mL | Activity [5]: Non-Toxic

Compound: CN(Cc1cnc2nc(N)nc(N)c2n1)c1ccc(C(=O)N[C@@H](CCC(=O)O)C(=O)O)cc1 [METHOTREXATE]
Activity (Mus musculus): Active | Activity [6]: Non-Toxic

Compound: CC(C)n1nc(-c2ccccc2)c2ccc(COc3ccc([C@@H](C)CC(=O)O)cc3)cc21
IC50 (Chemerin-like receptor 1 [7]): 5750 nM

Compound: CC(CC(=O)O)c1ccc(OCc2ccc3c(-c4cc(Cl)c(CO)c(Cl)c4)nn(C4CCCC4)c3c2)cc1 (racemic)
Cmax [8]: 2600 ng/mL | Tmax [9]: 30 min | AUC(0-t) at 24 h [10]: 11700 ng·h/mL

Compound: CC(CC(=O)O)c1ccc(OCc2ccc3c(-c4ccc(Cl)cc4)nn(C4CCCC4)c3c2)cc1 (racemic)
IC50 (Chemerin-like receptor 1 [1]): 2290 nM

Compound: CC[C@@H](O)/C=C/C=C\C[C@@H](O)/C=C/C=C/C=C\[C@@H](O)CCCC(=O)O [RESOLVIN E1]
EC50 (Chemerin-like receptor 1 [7]): 1 nM

Second part, the compound after the results:

IC50 (Chemerin-like receptor 1 [1]): 525 nM
Compound: C[C@@H](CC(=O)O)c1ccc(OCc2ccc3c(-c4cc(Cl)c(O)cc4Cl)nn(C4CCCC4)c3c2)cc1

IC50 (Chemerin-like receptor 1 [1]): 19.1 nM
Compound: C[C@@H](CC(=O)O)c1ccc(OCc2cc(F)c3c(-c4cc(Cl)c(O)c(Cl)c4)nn(C4CCCC4)c3c2)cc1

IC50 (Chemerin-like receptor 1 [1]): 1700 nM
Compound: C[C@@H](CC(=O)O)c1ccc(OCc2ccc3c(-c4ccc(O)c([N+](=O)[O-])c4)nn(C4CCCC4)c3c2)cc1

IC50 (Chemerin-like receptor 1 [1]): 141 nM
Compound: C[C@@H](CC(=O)O)c1ccc(OCc2ccc3c(-c4cc(Cl)c(O)c(Cl)c4)nn(C4CCCC4)c3c2)cc1

IC50 (Chemerin-like receptor 1 [1]): 1100 nM
Compound: COc1ccc(-c2nn(C3CCCC3)c3cc(COc4ccc(C(C)CC(=O)O)cc4)ccc23)cc1 (racemic)

IC50 (Chemerin-like receptor 1 [1]): 2090 nM
Compound: C[C@@H](CC(=O)O)c1ccc(OCc2ccc3c(-c4ccc(O)c(O)c4)nn(C4CCCC4)c3c2)cc1

IC50 (Chemerin-like receptor 1 [1]): 676 nM
Compound: C[C@@H](CC(=O)O)c1ccc(OCc2ccc3c(-c4ccc(O)cc4Cl)nn(C4CCCC4)c3c2)cc1

IC50 (Chemerin-like receptor 1 [1]): 513 nM
Compound: C[C@@H](CC(=O)O)c1ccc(OCc2ccc3c(-c4cc(F)c(O)cc4F)nn(C4CCCC4)c3c2)cc1

IC50 (Chemerin-like receptor 1 [1]): 53.7 nM
Compound: C[C@@H](CC(=O)O)c1ccc(OCc2ccc3c(-c4cc(F)c(CO)c(F)c4)nn(C4CCCC4)c3c2)cc1

IC50 (Chemerin-like receptor 1 [1]): 309 nM | Cmax [8]: 225 ng/mL | Tmax [9]: 30 min | AUC(0-t) at 24 h [10]: 823 ng·h/mL
Compound: CC(CC(=O)O)c1ccc(OCc2ccc3c(-c4cc(Cl)c(O)c(Cl)c4)nn(C4CCCC4)c3c2)cc1 (racemic)
